Data published in ChEMBL document CHEMBL5726543, “Glucocerebrosidase modulators and uses thereof” (2017).

Biological target: T1, Lysosomal acid glucosylceramidase (Homo sapiens, UniProt P04062)
T1 sequence (P04062 whole entry): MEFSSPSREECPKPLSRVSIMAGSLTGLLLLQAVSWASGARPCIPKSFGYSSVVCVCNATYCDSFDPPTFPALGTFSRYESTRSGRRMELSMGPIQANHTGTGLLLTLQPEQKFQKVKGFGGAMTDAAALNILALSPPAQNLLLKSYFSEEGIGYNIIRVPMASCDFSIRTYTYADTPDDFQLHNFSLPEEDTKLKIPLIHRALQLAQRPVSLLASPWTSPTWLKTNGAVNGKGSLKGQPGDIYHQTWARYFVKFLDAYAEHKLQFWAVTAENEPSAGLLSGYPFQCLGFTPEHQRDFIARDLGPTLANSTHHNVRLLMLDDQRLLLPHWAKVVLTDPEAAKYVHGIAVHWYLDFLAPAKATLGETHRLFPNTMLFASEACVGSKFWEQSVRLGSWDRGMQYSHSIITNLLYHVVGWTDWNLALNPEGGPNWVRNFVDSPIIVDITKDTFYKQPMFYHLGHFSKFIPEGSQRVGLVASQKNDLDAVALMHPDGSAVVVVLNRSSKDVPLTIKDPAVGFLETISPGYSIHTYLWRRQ

- Ki: 1400 nM
Compound: CCCC1(CCC)NC[C@@H](O)[C@H](O)[C@H]1CO
